Assay results published in patent US4620014A, “2-furylbutyrolactones and methods for using same” (priority 1983, dated 1986).
Like-named read-outs stand apart in the source and are kept apart here.

How the values were obtained:
[1] = Dissolution in bicarbonate buffered saline; format: physicochemical; conditions: 0.238 molar bicarbonate buffered saline (0.85%)
[2] = tested on: spleen lymphocytes of KLH-immunized C57BL/6 mice; conditions: for Lymphocyte Stimulation Index, Con-A / Lymphocyte Stimulation Index, Control (no mitogen) / Lymphocyte Stimulation Index, PHA: day 17
Description: The effect of the compounds of this invention on the immune response to specific antigens involves immunization of mice with specific anitgens such as bovine serum albumin (BSA) or keyhole limpet hemocyanin (KLH). Following immunization, it is possible to assess the cell-mediated or humoral (antibody) immune response to these antigens by various methods:
(1) Lymphocyte stimulation assays can be performed using varying concentrations of the specific antigens as mitogens in the lymphocyte stimulation microculture system described above. The only difference is that the incubation period is extended to five days instead of three as for the polyclonal mitogens.
Mice of the C57BL/6 strain are given i.p. injections of either 50, 100, 200 or 400 mg/kg of Cpd. 1 or buffer for ten days (days 1-10). An antigen, keyhole limpet hemocyanin (KLH), is administered intraperitoneally with Freund's Complete Adjuvant (FCA) on days 1, 7, and 13. Blood samples are taken for assay of the antibody response on days 0, 5, 12, and 17. Spleens are removed, lymphocytes isolated and a lymphocyte stimulation assay with PHA, Con-A or KLH antigen as the mitogens is performed on day 17 of the experiment.

Cc1ccc(C2(O)C(=O)OC3C(O)COC32O)o1.Cc1ccc(C2(O)C(=O)OC3C(O)COC32O)o1.O=C1CCC(=O)O1 (stereo not drawn) [Cpd. 1]
dissolution [1]: dissolves completely | Lymphocyte Stimulation Index, Con-A ([2]; 50 mg/kg i.p.): 19.0 | Lymphocyte Stimulation Index, Control (no mitogen) ([2]; 50 mg/kg i.p.): 0.976 | Lymphocyte Stimulation Index, PHA ([2]; 50 mg/kg i.p.): 7.65 | Lymphocyte Stimulation Index, KLH ([2]; 50 mg/kg i.p., day 17, KLH 0.025 μg/well): 0.0386 | Lymphocyte Stimulation Index, KLH ([2]; 50 mg/kg i.p., day 17, KLH 0.5 μg/well (first 0.5 column)): 0.415 | Lymphocyte Stimulation Index, KLH ([2]; 50 mg/kg i.p., day 17, KLH 0.5 μg/well (second 0.5 column)): 0.357 | Lymphocyte Stimulation Index, KLH ([2]; 50 mg/kg i.p., day 17, KLH 1.0 μg/well): 0.536 | Lymphocyte Stimulation Index, Con-A ([2]; 100 mg/kg i.p.): 15.6 | Lymphocyte Stimulation Index, Control (no mitogen) ([2]; 100 mg/kg i.p.): 0.961 | Lymphocyte Stimulation Index, PHA ([2]; 100 mg/kg i.p.): 9.12 | Lymphocyte Stimulation Index, KLH ([2]; 100 mg/kg i.p., day 17, KLH 0.025 μg/well): 0.401 | Lymphocyte Stimulation Index, KLH ([2]; 100 mg/kg i.p., day 17, KLH 0.5 μg/well (first 0.5 column)): 0.734 | Lymphocyte Stimulation Index, KLH ([2]; 100 mg/kg i.p., day 17, KLH 0.5 μg/well (second 0.5 column)): 0.526 | Lymphocyte Stimulation Index, KLH ([2]; 100 mg/kg i.p., day 17, KLH 1.0 μg/well): 0.898 | Lymphocyte Stimulation Index, Con-A ([2]; 200 mg/kg i.p.): 51.7 | Lymphocyte Stimulation Index, Control (no mitogen) ([2]; 200 mg/kg i.p.): 1.73 | Lymphocyte Stimulation Index, PHA ([2]; 200 mg/kg i.p.): 12.4 | Lymphocyte Stimulation Index, KLH ([2]; 200 mg/kg i.p., day 17, KLH 0.025 μg/well): 3.91 | Lymphocyte Stimulation Index, KLH ([2]; 200 mg/kg i.p., day 17, KLH 0.5 μg/well (first 0.5 column)): 4.26 | Lymphocyte Stimulation Index, KLH ([2]; 200 mg/kg i.p., day 17, KLH 0.5 μg/well (second 0.5 column)): 1.02 | Lymphocyte Stimulation Index, KLH ([2]; 200 mg/kg i.p., day 17, KLH 1.0 μg/well): 7.45 | lymphocyte DNA synthesis ([2]; 200 mg/kg, day 17, Con-A or KLH): statistically significant increase in lymphocyte DNA synthesis | Lymphocyte Stimulation Index, Con-A ([2]; 400 mg/kg i.p.): 35.5 | Lymphocyte Stimulation Index, Control (no mitogen) ([2]; 400 mg/kg i.p.): 0.840 | Lymphocyte Stimulation Index, PHA ([2]; 400 mg/kg i.p.): 2.32 | Lymphocyte Stimulation Index, KLH ([2]; 400 mg/kg i.p., day 17, KLH 0.025 μg/well): 1.03 | Lymphocyte Stimulation Index, KLH ([2]; 400 mg/kg i.p., day 17, KLH 0.5 μg/well (first 0.5 column)): 0.232 | Lymphocyte Stimulation Index, KLH ([2]; 400 mg/kg i.p., day 17, KLH 0.5 μg/well (second 0.5 column)): 0.667 | Lymphocyte Stimulation Index, KLH ([2]; 400 mg/kg i.p., day 17, KLH 1.0 μg/well): 0.589
